# Test results taken from patent US12544375B2, “Small molecule therapeutic for parkinson's disease paired with a biomarker of therapeutic activity” (The Board of Trustees of the Leland Stanford Junior …, priority 2019, dated 2026).
# Biological target: T1, Miro1 (Homo sapiens, UniProt Q8IXI2)
# T1 construct: We applied compound 3 to fibroblasts from one sporadic PD patient (PD-2); endogenous in cells; host or cells: human skin fibroblasts (PD-2, Healthy-1 and further PD/control lines)
# Test: Miro1 response to CCCP in PD fibroblasts, Western blotting
# Format: cell-based
# Procedure: FIG. 2A-FIG. 2F. Miro1 Reducer Eliminates the Miro1 Defect in PD Fibroblasts. (FIG. 2A) Chemical properties of Miro1 Reducer. (FIG. 2B) Wild-type flies (w^1118) were fed with DMSO alone (0 μM Miro1 Reducer) or Miro1 Reducer in DMSO at 250 μM for 7 days, and lysed and blotted as indicated. The band intensities are normalized to those of Tubulin from the same blots. n=4. (FIG. 2C-FIG. 2E) Fibroblasts were treated, lysed, and blotted as indicated. (FIG. 2C) Band intensities are normalized to those of GAPDH from the same blots and compared to “Healthy-1, no treatment” except otherwise indicated. n=4. (FIG. 2D) Band intensities are normalized to those of ATP5β from the same blots and expressed as a percentage of the mean of “0 μM Miro1 Reducer with CCCP”. Mean±S.E.M is shown. n=3. (FIG. 2E) Band intensities are normalized to those of GAPDH from the same blots and compared to “Healthy-1, no CCCP, no MG132” except otherwise indicated. n=4. (FIG. 2F) Healthy-1 and PD-2 fibroblasts were transfected as indicated, and immunostained with anti-Myc (Miro1, green) and stained with Dapi (blue). The Miro1 intensity is normalized to that of mito-dsRed from the same cell and quantified across 37-62 cells from 5 fields each transfection, 3 independent transfections. Scale bars: 50 μm. For (FIG. 2C-FIG. 2F), both CCCP and Miro1 Reducer were dissolved in DMSO. Cells were pretreated with Miro1 Reducer 24 hrs before the application of CCCP for another 6 hrs. The same volume of DMSO was applied at the same time in negative controls.
# FIG. 3A-FIG. 3D. Miro1 Reducer Rescues Parkinson's Neurodegeneration. (FIG. 3A) Fibroblasts were treated, lysed, and blotted as indicated. Band intensities are normalized to those of ATP5β from the same blots and compared to “Healthy-2, no treatment”. n=4. (FIG. 3B-FIG. 3C) iPSC-derived neurons were treated as indicated and immunostained with anti-TH (FIG. 3B) or stained with PI and Dapi (FIG. 3C). Both Antimycin A and Miro1 Reducer were dissolved in ethanol. Neurons were pretreated with Miro1 Reducer 24 hrs before the application of Antimycin A for another 6 hrs. The same volume of ethanol was applied at the same time in negative controls. (FIG. 3B) The density of TH-positive neurons is calculated in each condition under 20×, from 10 fields each experiment, 3-4 experiments. […] (FIG. 3C) The percentage of PI-positive cells out of total cells (Dapi-positive) is calculated. n=20 fields each experiment, 4 experiments. […] Graphs of Mean±S.E.M show the percent of time each mitochondrion is in motion (red and blue, compared to “Wild-type-I, before treatment”), and the mitochondrial intensity normalized to that of the same axonal region at “0 min” and expressed as a fraction of the mean of “Wild-type-I, 0 min”. n=33-77 mitochondria from 5-8 axons from 5-8 separate transfections. […]
# T1 sequence (Q8IXI2 whole entry): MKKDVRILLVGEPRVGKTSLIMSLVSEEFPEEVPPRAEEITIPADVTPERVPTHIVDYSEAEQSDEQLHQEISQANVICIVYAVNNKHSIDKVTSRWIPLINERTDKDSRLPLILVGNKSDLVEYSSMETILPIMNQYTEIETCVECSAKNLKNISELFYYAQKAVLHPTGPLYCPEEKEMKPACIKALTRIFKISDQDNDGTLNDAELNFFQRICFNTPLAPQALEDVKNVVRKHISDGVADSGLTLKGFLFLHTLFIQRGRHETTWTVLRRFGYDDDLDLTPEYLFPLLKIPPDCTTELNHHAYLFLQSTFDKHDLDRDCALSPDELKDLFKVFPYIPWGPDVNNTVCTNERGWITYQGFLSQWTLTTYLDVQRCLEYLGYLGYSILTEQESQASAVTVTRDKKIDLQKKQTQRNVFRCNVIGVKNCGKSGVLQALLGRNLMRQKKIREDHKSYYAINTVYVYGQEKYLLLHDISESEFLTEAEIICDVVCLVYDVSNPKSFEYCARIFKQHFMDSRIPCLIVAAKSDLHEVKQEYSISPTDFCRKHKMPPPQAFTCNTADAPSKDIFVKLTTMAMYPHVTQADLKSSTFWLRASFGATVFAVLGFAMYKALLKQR
smiles,measurement,setting,value
O=C(Nc1ccc(Nc2cc(-n3ccnc3)ncn2)cc1)Nc1cccc(F)c1 [Miro1 Reducer],Miro1 degradation following CCCP treatment,"PD-2 fibroblasts, 10 μM for 30 hrs, CCCP 6 hrs",robustly promoted Miro1 degradation
same,reduction of Miro1 protein in presence of proteasome inhibitor MG132,"PD-2 fibroblasts, following CCCP treatment",blocked by the proteasome inhibitor MG132
same,Miro1 degradation after depolarization in additional lines,additional 4 control and 4 sporadic PD fibroblast cell lines,same beneficial change of Miro1 degradation after depolarization
same,IC50,"fibroblasts pretreated 24 hrs, then CCCP 6 hrs, FIG. 2D, read-out: Miro1 protein levels, dose-dependent response (IC50)",7.8 µM
